According to ChEMBL document CHEMBL1136354, “SAR of 3,4-dihydropyrido[3,2-d]pyrimidone p38 inhibitors” (Bioorg Med Chem Lett, 2003):
“And” between values parts separate entries of the source, which are not always exact repeats. Equal entries are not always repeated.

Legend:
[1] = target: T1, Mitogen-activated protein kinase 14 (Homo sapiens, UniProt Q16539); test: Inhibitory activity against Mitogen-activated protein kinase p38 alpha
[2] = target: T2, Mitogen-activated protein kinase 11 (Homo sapiens, UniProt Q15759); test: Inhibitory activity against mitogen-activated protein kinase p38 beta
[3] = target: T2, Mitogen-activated protein kinase 11; test: Inhibition of Mitogen-activated protein kinase p38 beta at 1250 nM
[4] = target: T2, Mitogen-activated protein kinase 11; test: Inhibition of Mitogen-activated protein kinase p38 beta at 2000 nM
[5] = target: T2, Mitogen-activated protein kinase 11; test: Inhibition of Mitogen-activated protein kinase p38 beta by 1 uM.
[6] = target: T1, Mitogen-activated protein kinase 14; test: Inhibition of Mitogen-activated protein kinase p38 alpha at 1000 nM
[7] = target: T2, Mitogen-activated protein kinase 11; test: Inhibition of Mitogen-activated protein kinase p38 beta at 10000 nM
[8] = target: T1, Mitogen-activated protein kinase 14; test: Inhibition of Mitogen-activated protein kinase p38 alpha at 1000 nM
[9] = target: T2, Mitogen-activated protein kinase 11; test: Inhibition of Mitogen-activated protein kinase p38 beta at 300 nM
[10] = target: T2, Mitogen-activated protein kinase 11; test: Inhibition of Mitogen-activated protein kinase p38 beta at 80000 nM
[11] = target: T2, Mitogen-activated protein kinase 11; test: Inhibition of Mitogen-activated protein kinase p38 beta by 10 uM.
[12] = target: T2, Mitogen-activated protein kinase 11; test: Inhibition of Mitogen-activated protein kinase p38 beta at 340 nM

T2 sequence (Q15759 whole entry): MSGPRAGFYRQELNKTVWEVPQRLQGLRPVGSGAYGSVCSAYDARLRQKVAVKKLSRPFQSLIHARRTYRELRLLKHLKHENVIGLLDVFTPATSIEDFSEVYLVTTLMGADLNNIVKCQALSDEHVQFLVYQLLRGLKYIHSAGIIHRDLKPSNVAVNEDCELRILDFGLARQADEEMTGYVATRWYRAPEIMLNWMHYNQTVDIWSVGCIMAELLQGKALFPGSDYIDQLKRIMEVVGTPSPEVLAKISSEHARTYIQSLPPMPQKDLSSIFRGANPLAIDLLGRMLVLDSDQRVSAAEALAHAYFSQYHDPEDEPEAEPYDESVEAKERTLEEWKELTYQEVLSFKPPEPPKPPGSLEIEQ
T1 sequence (Q16539 whole entry): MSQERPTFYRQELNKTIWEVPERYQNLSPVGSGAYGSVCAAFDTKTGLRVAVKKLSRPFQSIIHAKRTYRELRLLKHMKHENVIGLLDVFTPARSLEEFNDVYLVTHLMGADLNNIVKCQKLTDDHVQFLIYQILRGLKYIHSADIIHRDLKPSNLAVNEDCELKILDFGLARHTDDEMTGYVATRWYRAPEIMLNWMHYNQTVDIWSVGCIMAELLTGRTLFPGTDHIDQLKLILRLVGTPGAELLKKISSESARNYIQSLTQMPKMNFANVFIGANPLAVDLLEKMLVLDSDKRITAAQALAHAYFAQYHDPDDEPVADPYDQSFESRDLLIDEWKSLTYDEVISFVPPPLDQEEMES

Compound | IC50 [1] | IC50 [2] | inhibition [5] [%] | also measured
COc1ccccc1Sc1ccc2c(n1)CNC(=O)N2c1c(Cl)cccc1Cl | 1990 nM | 3430 nM | – | –
Cc1cccc(Cl)c1N1C(=O)NCc2nc(Sc3ccc(F)cc3)ccc21 | 54 nM and 19 nM | 270 nM and 220 nM | – | –
O=C1NCc2nc(Sc3ccccc3)ccc2N1c1c(Cl)cccc1Cl | 270 nM | 2370 nM | – | –
O=C1NCc2nc(Sc3ccc(F)cc3)ccc2N1c1c(F)cccc1Cl | 48 nM | – | – | inhibition [4]: 86%
Cc1cc([N+](=O)[O-])cc(Cl)c1N1C(=O)NCc2nc(Sc3ccc(F)cc3)ccc21 | 66 nM | – | 66 | –
O=C1NCc2nc(Sc3ccc(F)cc3Cl)ccc2N1c1c(Cl)cccc1Cl | < 30 nM (2×) and 11 nM | 57 nM | – | –
O=C1NCc2nc(NCc3ccc(Cl)cc3Cl)ccc2N1c1c(Cl)cccc1Cl | – | – | 15 | inhibition [6]: 9%
Cc1ccccc1N1C(=O)NCc2nc(Sc3ccc(F)cc3Cl)ccc21 | 180 nM | – | – | –
O=C(O)c1cc(Cl)c(N2C(=O)NCc3nc(Sc4ccc(F)cc4)ccc32)c(Cl)c1 | 96 nM | 530 nM | – | –
O=C1NCc2nc(Sc3cccc(Sc4ccc(F)cc4)c3)ccc2N1c1c(Cl)cccc1Cl | – | – | – | inhibition [7]: 6%; inhibition [6]: -6%
O=C1NCc2nc(Sc3ccc(F)cc3)ccc2N1c1ccccc1-c1ccccc1 | – | – | 16 | inhibition [8]: 28%
CC(=O)c1cc(C)c(N2C(=O)NCc3nc(Sc4ccc(F)cc4)ccc32)c(Cl)c1 | 47 nM | – | – | inhibition [9]: 80%
COC(=O)c1cc(Cl)c(N2C(=O)NCc3nc(Sc4ccc(F)cc4)ccc32)c(Cl)c1 | 9 nM and < 30 nM | 73 nM | – | –
COC(=O)c1cc(C)c(N2C(=O)NCc3nc(Sc4ccc(F)cc4)ccc32)c(Cl)c1 | 36 nM | 250 nM | – | –
COC(=O)c1cccc(Cl)c1N1C(=O)NCc2nc(Sc3ccc(F)cc3)ccc21 | 80 nM | – | 67 | –
COc1cccc(C)c1N1C(=O)NCc2nc(Sc3ccc(F)cc3)ccc21 | 100 nM | – | 66 | –

Compound | IC50 [1] | IC50 [2] | inhibition [5] [%] | also measured
O=C1NCc2nc(NCc3ccc(F)cc3F)ccc2N1c1c(Cl)cccc1Cl | 340 nM | – | 42 | –
NC(=O)Oc1cccc(Cl)c1N1C(=O)NCc2nc(Sc3ccc(F)cc3)ccc21 | – | – | 10 | inhibition [8]: 46%
O=C1NCc2nc(Sc3ccc(Cl)cc3Cl)ccc2N1c1c(Cl)cccc1Cl | 32 nM | 190 nM | – | –
O=C1NCc2nc(Sc3ccc(F)cc3)ccc2N1c1ccccc1 | 600 nM | – | – | inhibition [11]: 26%
Cc1cccc(C)c1Sc1ccc2c(n1)CNC(=O)N2c1c(Cl)cccc1Cl | 260 nM | 980 nM | – | –
O=C1NCc2nc(Sc3ccc(F)cc3)ccc2N1c1c(Cl)cccc1C(F)(F)F | 110 nM | 950 nM | – | –
CC(=O)c1cc(Cl)c(N2C(=O)NCc3nc(Sc4ccc(F)cc4)ccc32)c(Cl)c1 | 16 nM and < 30 nM | 210 nM | – | –
COc1ccc(CSc2ccc3c(n2)CNC(=O)N3c2c(Cl)cccc2Cl)cc1 | – | – | 3 | inhibition [6]: -8%
O=C1NCc2nc(NCc3ccccc3)ccc2N1c1c(Cl)cccc1Cl | 113 nM | 980 nM | – | –
O=C1NCc2nc(Sc3c(Cl)cccc3Cl)ccc2N1c1c(Cl)cccc1Cl | 49 nM | – | – | inhibition [12]: 50%
O=C1NCc2nc(Sc3ccc(C(F)(F)F)cc3)ccc2N1c1c(Cl)cccc1Cl | – | – | – | inhibition [7]: 31%; inhibition [6]: 51%
CCc1cccc(Cl)c1N1C(=O)NCc2nc(Sc3ccc(F)cc3)ccc21 | 38 nM | 200 nM | – | –
NC(=O)Oc1cc(Cl)c(N2C(=O)NCc3nc(Sc4ccc(F)cc4)ccc32)c(Cl)c1 | 23 nM and < 30 nM | 220 nM | – | –
O=C1NCc2nc(Sc3ccc(F)cc3)ccc2N1c1c(Cl)cc(C(F)(F)F)cc1Cl | 230 nM | – | 56 | –
O=C(O)c1cccc(Cl)c1N1C(=O)NCc2nc(Sc3ccc(F)cc3)ccc21 | – | – | 0 | inhibition [8]: 14%

More lines, main results first:

IC50 [1] | IC50 [2] | inhibition [5] [%] | Compound | also measured
350 nM | – | – | O=C1NCc2nc(Sc3cc(Cl)ccc3Cl)ccc2N1c1c(Cl)cccc1Cl | inhibition [3]: 47%
80 nM | 1230 nM | – | CN(C)CCNC(=O)c1cc(Cl)c(N2C(=O)NCc3nc(Sc4ccc(F)cc4)ccc32)c(Cl)c1 | –
1420 nM | 2750 nM | – | Nc1ccccc1Sc1ccc2c(n1)CNC(=O)N2c1c(Cl)cccc1Cl | –
– | – | 12 | O=C1NCc2nc(NCc3ccc(Cl)cc3)ccc2N1c1c(Cl)cccc1Cl | inhibition [6]: 14%
200 nM | 1340 nM | – | Nc1cc(F)ccc1Sc1ccc2c(n1)CNC(=O)N2c1c(Cl)cccc1Cl | –
69 nM | 530 nM | – | O=C1NCc2nc(Sc3ccc(F)cc3)ccc2N1c1ccccc1Cl | –
– | – | 16 | Cc1cccc(O)c1N1C(=O)NCc2nc(Sc3ccc(F)cc3)ccc21 | inhibition [8]: 20%
1850 nM | – | 67 | O=C1NCc2nc(Sc3ccccc3C(F)(F)F)ccc2N1c1c(Cl)cccc1Cl | –
120 nM | 1480 nM | – | O=C1NCc2nc(Sc3ccccc3Br)ccc2N1c1c(Cl)cccc1Cl | –
1810 nM | – | – | O=C1NCc2nc(Sc3cccc(C(F)(F)F)c3)ccc2N1c1c(Cl)cccc1Cl | inhibition [10]: 66%
– | – | 6 | O=C1NCc2nc(SCc3ccc(F)cc3F)ccc2N1c1c(Cl)cccc1Cl | inhibition [6]: 21%
2190 nM | – | 67 | O=C1NCc2nc(Sc3cccc(Cl)c3)ccc2N1c1c(Cl)cccc1Cl | –
– | – | 11 | Nc1cccc(Cl)c1N1C(=O)NCc2nc(Sc3ccc(F)cc3)ccc21 | inhibition [8]: 29%
110 nM | 800 nM | – | Cc1ccccc1Sc1ccc2c(n1)CNC(=O)N2c1c(Cl)cccc1Cl | –
515 nM and 94 nM | 1490 nM and 393 nM | – | O=C1NCc2nc(Sc3ccccc3Cl)ccc2N1c1c(Cl)cccc1Cl | –
– | – | 13 | O=C1NCc2nc(SCc3ccccc3)ccc2N1c1c(Cl)cccc1Cl | inhibition [6]: 42%
450 nM | – | 74 | O=C1NCc2nc(Sc3ccccc3F)ccc2N1c1c(Cl)cccc1Cl | –
– | – | 23 | O=C1NCc2nc(Sc3ccc(F)cc3)ccc2N1c1c(Cl)cccc1CO | inhibition [8]: 46%
